# Data reported in patent US10300026B2, “Use of dihydroxyacetone in preparation of anti-cancer medicaments” (priority 2015, dated 2019).
# Read-outs that look alike come from different tables or passages of the source.
# Key:
# HCT116 = test: CellTiter-Glo cell viability, HCT116 (human colon cancer cell); type: cell-based
# Description: (§1) 15 g of the commercially available 1,3-dihydroxyacetone in the solid powder form was added into 100 mL of 5% glucose (infusion bottle), then filled into 100 bottles.
# (§2) After digesting the cells and counting (counting suspended cells directly), the cells were diluted to 1.25×10^5 cells/ml, inoculated into a 384-well plate (5000 cells/well) with 40 μl per well, centrifuged at 1500 rpm for 1 min, placed into the incubator and incubated overnight.
# (§3) The medicaments were diluted in gradient with a 5% glucose solution to 5×, respectively. Each well was dosed with 10 μl medicament, with 4 wells (n=4) for each concentration. The cell viability was measured with Luminescence Cell Viability Assay kit after incubating for 72 hours in an incubator.
# (§4) CellTiter-Glo reagent was added into each well, the volume of which is the same as that of medium. It was shaked on a shaker for 5 min, centrifuged at 1500 rpm for 1 min, and incubated in the dark at room temperature for 15 min. Then the chemiluminescence was detected with BMG PHERAstar.
# (§5) The cell viability was calculated by using the following formula: Cell viability (Viability %)=100%×(LUMsample to be measured−LUMblank)/(LUMsolvent control−LUMblank)
# (§6) The curve of Log[concentration] versus cell viability was fitted using Prism 6 to calculate IC50 of sample for each cell line.
# SH-SY5Y = test: CellTiter-Glo cell viability, SH-SY5Y (human neuroblastoma cell); type: cell-based
# Description: as §1, §2, §3, §4, §5, §6
# C-33A = test: CellTiter-Glo cell viability, C-33A (human cervical cancer cell); type: cell-based
# Description: as §1, §2, §3, §4, §5, §6
# A549 = test: CellTiter-Glo cell viability, A549 (human non-small cell lung cancer cell); type: cell-based
# Description: as §1, §2, §3, §4, §5, §6
# Jurkat = test: CellTiter-Glo cell viability, Jurkat (human T lymphoblastic leukemia cell); type: cell-based
# Description: as §1, §2, §3, §4, §5, §6
# A431 = test: CellTiter-Glo cell viability, A431 (human cutaneous squamous cell carcinoma); type: cell-based
# Description: as §1, §2, §3, §4, §5, §6
# PANC-1 = test: CellTiter-Glo cell viability, PANC-1 (human pancreatic cancer cell line); type: cell-based
# Description: as §1, §2, §3, §4, §5, §6
# DU145 = test: CellTiter-Glo cell viability, DU145 (human prostate cancer cell); type: cell-based
# Description: as §1, §2, §3, §4, §5, §6
# FaDu = test: CellTiter-Glo cell viability, FaDu (human pharyngeal squamous cell); type: cell-based
# Description: as §1, §2, §3, §4, §5, §6
# U87MG = test: CellTiter-Glo cell viability, U87MG (human spongioblastoma cell line); type: cell-based
# Description: as §1, §2, §3, §4, §5, §6
# SW620 = test: CellTiter-Glo cell viability, SW620 (human colon cancer cell); type: cell-based
# Description: as §1, §2, §3, §4, §5, §6
# TF1-α = test: CellTiter-Glo cell viability, TF1-α (human erythroleukemia cell); type: cell-based
# Description: as §1, §2, §3, §4, §5, §6
# MDA-MB-231 = test: CellTiter-Glo cell viability, MDA-MB-231 (human breast cancer cell); settings: 72 hours, n=4, read-out: IC50 calculated based on the concentration of dihydroxyacetone
# Description: as §1, §2, §3, §4, §5, §6
# [1] = at pH 6.0; cited from earlier work
# [2] = Homo sapiens, 72 h, read-out: IC50 calculated based on the concentration of dihydroxyacetone
structure (smiles),measurement,setting,value
"N.N.[Cl][Pt][Cl] [DDP, cis-diammine platinum dichloride, reference compound]",IC50,"HCT116; HCT116, 72 hours, n=4, read-out: IC50",22.9 µM
same,IC50,"SH-SY5Y; 72 hours, n=4, read-out: IC50",2.89 µM
same,IC50,"C-33A; C-33A, 72 hours, n=4, read-out: IC50",2.85 µM
same,IC50,"A549; A549, 72 hours, n=4, read-out: IC50",4.1 µM
same,IC50,"Jurkat; 72 hours, n=4, read-out: IC50",0.66 µM
same,IC50,"A431; A431, 72 hours, n=4, read-out: IC50",9.29 µM
same,IC50,"PANC-1; PANC-1, 72 hours, n=4, read-out: IC50",22.4 µM
same,IC50,"DU145; DU145, 72 hours, n=4, read-out: IC50",4.54 µM
same,IC50,"FaDu; 72 hours, n=4, read-out: IC50",11.5 µM
same,IC50,"U87MG; U87MG, 72 hours, n=4, read-out: IC50",24 µM
same,IC50,"SW620; SW620, 72 hours, n=4, read-out: IC50",24.4 µM
same,IC50,"TF1-α; TF1-α, 72 hours, n=4, read-out: IC50",3.76 µM
"O=C(CO)CO [Dihydroxyacetone, 1,3-dihydroxyacetone]",IC50,"HCT116; Homo sapiens, HCT-116, 72 h, read-out: IC50 calculated based on the concentration of dihydroxyacetone",6820 µM
same,IC50,SH-SY5Y; [2],1810 µM
same,IC50,"C-33A; Homo sapiens, C-33-A, 72 h, read-out: IC50 calculated based on the concentration of dihydroxyacetone",5090 µM
same,IC50,MDA-MB-231,7950 µM
same,IC50,"A549; Homo sapiens, A549, 72 h, read-out: IC50 calculated based on the concentration of dihydroxyacetone",4390 µM
same,IC50,Jurkat; [2],1830 µM
same,IC50,"A431; Homo sapiens, A-431, 72 h, read-out: IC50 calculated based on the concentration of dihydroxyacetone",5640 µM
same,IC50,"PANC-1; Homo sapiens, PANC-1, 72 h, read-out: IC50 calculated based on the concentration of dihydroxyacetone",7360 µM
same,IC50,"DU145; Homo sapiens, DU-145, 72 h, read-out: IC50 calculated based on the concentration of dihydroxyacetone",7680 µM
same,IC50,FaDu; [2],9420 µM
same,IC50,"U87MG; Homo sapiens, U-87 MG, 72 h, read-out: IC50 calculated based on the concentration of dihydroxyacetone",9210 µM
same,IC50,"SW620; Homo sapiens, SW-620, 72 h, read-out: IC50 calculated based on the concentration of dihydroxyacetone",8540 µM
same,IC50,"TF1-α; Homo sapiens, TF-1, 72 h, read-out: IC50 calculated based on the concentration of dihydroxyacetone",4890 µM
same,Stability,[1],stable
